Results taken from patent US20240425867A1, “NUCLEIC ACID-BASED ASSEMBLY AND USES THEREOF” (Rheinische Friedrich-Wilhelms-Universität Bonn, priority 2016, published 2024).
Where “and” joins values, the source holds several entries; their conditions need not be identical. Equal entries are not always repeated.

Assays:
[1] = Critical micelle concentration via FRET (6-Fam/Atto647N-labeled motif 3); format: physicochemical; settings: room temperature
Description: The critical micelle concentration (CMC) value of the trCLN3-L4 aggregates was determined by intermolecular Förster resonance energy transfer (FRET) experiments using a FRET pair of 6-Fam and Atto647N both attached to the 5′-end of the trCLN3-L4 motif 3. The FRET labels were attached at the 5′-end in immediate proximity to the lipid-modifications to ensure that intermolecular FRET effects report the formation of micellar nanoconstructs at a concentration above the critical micelle concentration.
In the FRET experiment, a series of nanoconstructs was self-assembled by mixing 6-Fam- and Atto647N-labeled motif 3 in 1:1 ratios in a concentration range between 0.035-15 μM (Table 2). […] The mixtures were transferred into a 384-well plate and the FRET effect was monitored at room temperature by using an excitation wave length of λex=480 nm and an emission wavelength of λem=669 nm using an EnSpire® Multimode Plate Reader (PerkinElmer).
The intensity signals were collected for both FRET channels at λem=669 nm for the acceptor channel and that of donor channel at λem=520 nm. […] The CMC value was determined from the intersection of the lower horizontal asymptote of the sigmoidal curve with the tangent at the inflection point corresponding to the minimum trCLN3-L4 concentration required for formation of stable micelles in aqueous medium. […]

[2] = target: T1, cMet (Homo sapiens, UniProt P08581); assay: Competitive filter-binding assay against γ-32P-labeled trCLN3; settings: competition with γ-32P-trCLN3, cMet ~50 nM, competitor 1 μM-25 pM, 37° C.
T1 construct: cMet-Fc, which represents the ectodomain of cMet fused to the Fc domain of human IgG1 was purchased from R&D Systems; purchased R&D Systems
T1 sequence (P08581 25-932 limits assumed): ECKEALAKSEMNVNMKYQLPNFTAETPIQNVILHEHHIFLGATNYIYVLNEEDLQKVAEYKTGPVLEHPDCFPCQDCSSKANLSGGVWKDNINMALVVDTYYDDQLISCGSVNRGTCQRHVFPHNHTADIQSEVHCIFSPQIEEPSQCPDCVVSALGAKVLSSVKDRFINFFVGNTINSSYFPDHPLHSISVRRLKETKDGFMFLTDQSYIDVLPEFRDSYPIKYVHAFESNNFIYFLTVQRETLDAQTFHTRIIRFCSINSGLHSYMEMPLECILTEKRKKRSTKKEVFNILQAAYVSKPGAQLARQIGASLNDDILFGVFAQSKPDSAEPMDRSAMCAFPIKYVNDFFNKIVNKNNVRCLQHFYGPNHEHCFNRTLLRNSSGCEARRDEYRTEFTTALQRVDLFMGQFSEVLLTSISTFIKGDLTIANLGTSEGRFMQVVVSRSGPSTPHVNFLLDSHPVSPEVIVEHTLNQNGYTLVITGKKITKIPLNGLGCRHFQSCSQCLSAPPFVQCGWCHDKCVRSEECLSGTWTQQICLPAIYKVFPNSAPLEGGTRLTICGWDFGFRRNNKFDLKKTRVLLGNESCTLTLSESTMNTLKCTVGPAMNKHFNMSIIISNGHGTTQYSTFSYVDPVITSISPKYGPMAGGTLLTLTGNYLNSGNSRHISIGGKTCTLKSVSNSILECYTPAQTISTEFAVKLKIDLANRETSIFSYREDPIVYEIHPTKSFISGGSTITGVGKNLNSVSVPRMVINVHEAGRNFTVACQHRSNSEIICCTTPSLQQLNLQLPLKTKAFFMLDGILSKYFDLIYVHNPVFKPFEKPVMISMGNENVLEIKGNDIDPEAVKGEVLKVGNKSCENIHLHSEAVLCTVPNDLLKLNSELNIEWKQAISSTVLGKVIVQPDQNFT
Description: To test the effect of lipid-modification on trCLN3 binding properties, we determined IC50 values for each trCLN3 derivative by a competitive filter retention assay in which varying concentrations of unlabeled 5′-(1-dodecynyl)-functionalized trCLN3 aptamers competed with constant amounts of γ-^32P-labeled trCLN3 in binding to cMet. Two control experiments were also performed using unlabeled trCLN3 and its two point mutant variant trCLN3.mut as competitors.
First, the trCLN3 motif was 5′-end-labeled with γ-^32P ATP using T4 polynucleotide kinase. An aliquot of 20 μL solution containing 50 pmol trCLN3. 6.7 pmol γ-^32P ATP and 20 U T4 polynucleotide kinase in 1× polynucleotide kinase buffer (New England Biolabs) was incubated at 37° C. for 45 min. followed by removal of unreacted γ-^32P ATP using an Illustra G-25 microspin column (GE Healthcare. München, Germany). The purity of the radiolabeled aptamer was confirmed using a 10% PAGE-gel.
0.25 mg/ml BSA. 2 mM MgCl2 in 1×PBS, pH 7.4. […] Residual radioactivity due to cMet bound labeled aptamers was quantified using Fujifilm Fla-3000 PhosphorImager and AIDA software. The curves were fitted with GraphPadPrism 3.02 plotting non-linear regression curve and the IC50 values have been calculated assuming a competition for single binding site.

[3] = Critical micelle concentration from pyrene fluorescence; format: physicochemical; settings: pyrene 100 μM
Description: Critical micelle concentration (CMC) value of the trCLN3-L4 motif was further confirmed by internalizing pyrene into the hydrophobic-lipid core of the micellar aggregate followed by measuring the fluorescence of pyrene-loaded trCLN3-L4 nanoconstructs at different concentrations. For this experiment a fixed amount of pyrene in acetone was transferred to an empty tube and acetone was allowed to evaporate in the dark at 45° C. for 30 min using an Eppendorf concentrator. trCLN3-L4 solutions in the concentration range between 0.0005-0.5 mg/ml were then added to yield a final pyrene concentration fixed at 100 μM for all reactions (Table 3). The solutions were incubated at 90° C. for 10 minutes in the dark and slowly cooled down to room temperature overnight at a rate of 1° C./10 min in order to internalize pyrene into the hydrophobic lipid core. The pyrene-loaded trCLN3-L4 nanoconstructs were transferred into a 384-multi well plate and the fluorescence emission spectrum of each well was recorded at room temperature by using an excitation wave length of 339 nm in an EnSpire® Multimode Plate Reader (PerkinElmer).
In close proximity, two pyrene molecules form an excimer that emits fluorescence at a longer wavelength compared to the monomer emission. The formed excimer is a dimeric complex where one molecule exists in an excited state and the other molecule in a ground state. Monomer emission of pyrene occurs within a range of 360-400 nm whereas the excimer emission is obtained within the wavelength limit of 465-500 nm. The critical micelle concentration was determined by the distinguishable pyrene excimer fluorescence of the corresponding DNA concentration. See G. Uddin G et al., Am. J. Biochem. Mol. Biol. 2013, 3, 175-181; which reference is incorporated herein in its entirety.

For “trCLN3-L4: trCLN3 aptamer with four C12-lipid-modified dU residues at the 5′-end; self-assembles into micellar nanoconstructs (TGGATGGTAGCTCGGTCGGGGTGGGTGGGTTGGCAAGTCT; four 5' C12-lipid-modified dU residues, chemistry not fully specified)”, the “critical micelle concentration (CMC)” value ([1]; FRET, aqueous medium) was 300 nM and ~0.005 mg/ml, the CMC values ([1]; both methods (FRET and pyrene fluorescence)) was 300 to 350 nM and the IC50 [2] was 43 nM. It also gave an I475/I373 ([3]; trCLN3-L4 0.0005 mg/mL (0.035 μM)) of 0.20, an I475/I373 ([3]; trCLN3-L4 0.001 mg/mL (0.07 μM)) of 0.23 and an I475/I373 ([3]; trCLN3-L4 0.0025 mg/mL (0.175 μM)) of 0.72. It also gave an I475/I373 ([3]; trCLN3-L4 0.005 mg/mL (0.35 μM)) of 1.98, an I475/I373 ([3]; trCLN3-L4 0.01 mg/mL (0.7 μM)) of 1.57 and an I475/I373 ([3]; trCLN3-L4 0.025 mg/mL (1.75 μM)) of 2.49. The I475/I373 ([3]; trCLN3-L4 0.05 mg/mL (3.5 μM)) was 4.69, the I475/I373 ([3]; trCLN3-L4 0.1 mg/mL (7.0 μM)) was 5.13 and the I475/I373 ([3]; trCLN3-L4 0.25 mg/mL (17.4 μM)) was 6.90. The I475/I373 ([3]; trCLN3-L4 0.5 mg/mL (35 μM)) was 7.83.
